Measurements as given in patent US7659278B2, “Use of low molecular weight compounds for preparing a medicament useful in treating mutant p53 mediated diseases” (Aprea AB, priority 2002, dated 2010).
Like-named read-outs stand apart in the source and are kept apart here.

Experiments:
[1] = tested on: Saos-2-His-273 osteosarcoma cells; assay: WST-1 growth inhibition by structural analogues, Saos-2-His-273 cells with or without doxycycline; assay type: cell-based, human; settings: for IC50: Homo sapiens, 48 h, WST-1; for R Saos-2His273: ratio IC50p53null/IC50mtp53
Protocol: (§1) After 12h cells were treated with analogues and incubated with compounds for 48 h. Then WST-1 cell proliferating reagent was added to each well and cell survival was estimated by reading absorbance at 450 nm by ELISA reader. The effect of structural analogues on cell growth was tested using different concentrations of the compounds, ranging from 0.1; 1; 5; 10 and 25 μM. After that curves of growth inhibition were generated based on a rational function Y=(b+cx)/1+ax by using Microcal Origin software. The coefficients (a,b,c) of the equation were determined by employing Levenberg-Marquardt algorithm.
(§2) The specificity of each compound was determined by calculation of ratio IC50p53null/IC50mtp53. Ratios equal to 1 or less are indicating non-specific activity.

[2] = tested on: H1299-His-175 lung adenocarcinoma cells; assay: WST-1 growth inhibition by structural analogues, H1299-His-175 cells with or without doxycycline; assay type: cell-based, human; settings: for IC50: Homo sapiens, 48 h, WST-1; for R H1299-His175: ratio IC50p53null/IC50mtp53
Protocol: as §1, §2

[3] = Dox+ (p53 null), read-out: IC50 Saos-2His273 Dox+
[4] = Dox− (mutant p53 expressed), read-out: IC50 Saos-2His273 Dox−
[5] = Dox+ (p53 null), read-out: IC50 H1299-His175 Dox+
[6] = Dox− (mutant p53 expressed), read-out: IC50 H1299-His175 Dox−

With `O=C1C2CCN(CC2)C1CN1C=NC2C(Cl)=NC(Cl)=NC21` (stereo not drawn) [2-(2,6-dichloro-9-methylenepurine)-3-quinuclidinone] the IC50 [1, 3] was 6.2 µM, the IC50 [1, 4] was 2.54 µM and the “R Saos-2His273” value [1] was 2.44. The IC50 [2, 5] was 4.9 µM, the IC50 [2, 6] was 3.2 µM and the “R H1299-His175” value [2] was 1.53.

`Cc1cc2ncn(CC3C(=O)C4CCN3CC4)c2cc1C` (stereo not drawn) [2-(5,6-dimethyl-benzimidazole-1-methylene)-3-quinuclidinone] was tested, and the IC50 [1, 3] was 9.24 µM, the IC50 [1, 4] was 4 µM and the “R Saos-2His273” value [1] was 2.31. The IC50 [2, 5] was 7.1 µM, the IC50 [2, 6] was 4.75 µM and the “R H1299-His175” value [2] was 1.51.

With `COc1ncnc2c1ncn2CC1C(=O)C2CCN1CC2` (stereo not drawn) [2-(6-methoxypurine-9-methylene)-3-quinuclidinone] the IC50 [1, 3] was 26 µM, the IC50 [1, 4] was 13.7 µM and the “R Saos-2His273” value [1] was 1.9. The IC50 [2, 5] was 23.2 µM, the IC50 [2, 6] was 15.5 µM and the “R H1299-His175” value [2] was 1.5.

`Cn1c(=O)c2c([nH]c(=O)n2CC2C(=O)C3CCN2CC3)n(C)c1=O` (stereo not drawn) [2-(7-methylene-1,3-dimethyluric acid)-3-quinuclidinone] was tested, and the IC50 [1, 3] was 5.51 µM, the IC50 [1, 4] was 2.74 µM and the “R Saos-2His273” value [1] was 2.01. The IC50 [2, 5] was 5.2 µM, the IC50 [2, 6] was 4.1 µM and the “R H1299-His175” value [2] was 1.26.

For `Nc1ncnc2nnn(CC3C(=O)C4CCN3CC4)c12` (stereo not drawn) [2-(8-azaadenine-7-methylene)-3-quinuclidinone], the IC50 [1, 3] was 7.27 µM, the IC50 [1, 4] was 2.79 µM and the “R Saos-2His273” value [1] was 2.61. The IC50 [2, 5] was 4.2 µM, the IC50 [2, 6] was 3.3 µM and the “R H1299-His175” value [2] was 1.27.

With `C=Cc1nc2ccccc2c(=O)[nH]1` [2-ethylene-4(3H)-quinazolinone] the IC50 [1, 3] was 5.05 µM, the IC50 [1, 4] was 3.97 µM and the “R Saos-2His273” value [1] was 1.27. For the same molecule, the IC50 [2, 5] was 3.9 µM, the IC50 [2, 6] was 1.4 µM and the “R H1299-His175” value [2] was 2.8.

`CN1C(=O)C=CC1=O` [N-methylmaleimide] was tested, and the IC50 [1, 3] was 6.45 µM, the IC50 [1, 4] was 4.04 µM and the “R Saos-2His273” value [1] was 1.6. For the same molecule, the IC50 [2, 5] was 5.4 µM, the IC50 [2, 6] was 2.9 µM and the “R H1299-His175” value [2] was 1.86.

With `O=C1C=CC(=O)N1` [maleimide] the IC50 [1, 3] was 7.59 µM, the IC50 [1, 4] was 3.37 µM and the “R Saos-2His273” value [1] was 2.25. The IC50 [2, 5] was 5.2 µM, the IC50 [2, 6] was 3 µM and the “R H1299-His175” value [2] was 1.73.
